Assay results as given in patent US20230125429A1 (priority 2017, published 2023).

Legend:
[1] = tested on: A498; experiment: Growth inhibitory effect, one hour exposure (IncuCyte Zoom); type: cell-based, human; details: A498, Renal
Description: (§1) Cancer cell lines and immortalized human cell lines were cultured in 1640 tissue culture medium (Corning, USA) with 10% fetal bovine serum in a standard tissue culture condition of 37° C. and 5% CO2.
(§2) For primary hepatocytes, the seeded cells were monitored for up to 48 hours either without any treatment (as a control) or with various types of treatments. For primary keratinocytes, cells in 48-well plates were monitored either without any treatment or with various types of treatment for up to 96 hours. For HepG2, cells 96-well plates were monitored either without any treatment or with various types of treatments for up to 48 hours. The IncuCyte Zoom was set to take a set of images at fixed locations (4 per well for 96-well plates and 16 per well for 48-well plates and 12-well plates) every three hours.
(§3) The one-hour exposure is intended to simulate the transient high concentrations within the liver as the results of either the first pass effects of some orally administered drugs, or of locally delivered drugs, anticipating that such a short term exposure is nevertheless sufficient to affect certain cell surface receptors without causing any significant off-target effects due to intracellular absorption. Such a strategy would also reduce false hits due to reversible cell cycle arrests.
(§4) To address this possibility, we investigated whether other cell lines, including other HCC cell lines, cell lines from other type of cancers, as well as non-cancer immortalized/transformed cell lines, were also sensitive to Triptonide. Specifically, a total of 51 human cancer cell lines, representing 10 types of human cancers (6 non-small cell lung cancer cell lines, 5 colon cancer cell lines, 5 central nerve system cancer cell lines, 8 Melanomas cell lines, 4 ovarian cancer cell lines, 4 renal cancer cell lines, 2 prostate cancer cell lines, 3 breast cancer cell lines, 7 hepatocellular carcinoma cell lines, and 4 gastric cancer cell lines) were analyzed.

[2] = tested on: AGS; experiment: as above; type: cell-based, human; details: Gastric cancer
Description: as §1, §2, §3, §4

[3] = tested on: BGC823; experiment: as above; type: cell-based, human; details: BGC823, Gastric cancer
Description: as §1, §2, §3, §4

[4] = tested on: CAKI-1; experiment: as above; type: cell-based, human; details: CAKI-1, Renal
Description: as §1, §2, §3, §4

[5] = tested on: DU-145; experiment: as above; type: cell-based, human; details: DU-145, Prostate
Description: as §1, §2, §3, §4

[6] = tested on: EKVX; experiment: as above; type: cell-based, human; details: Non-Small Cell Lung
Description: as §1, §2, §3, §4

[7] = tested on: HCC-2998; experiment: as above; type: cell-based, human; details: HCC-2998, Colon
Description: as §1, §2, §3, §4

[8] = tested on: HCT-116; experiment: as above; type: cell-based, human; details: HCT-116, Colon
Description: as §1, §2, §3, §4

[9] = tested on: HCT-15; experiment: as above; type: cell-based, human; details: HCT-15, Colon
Description: as §1, §2, §3, §4

[10] = tested on: Hep3B; experiment: as above; type: cell-based, human; details: Hepatocellular carcinoma
Description: as §1, §2, §3, §4

[11] = tested on: IGR-OV1; experiment: as above; type: cell-based, human; details: IGR-OV1, Ovarian
Description: as §1, §2, §3, §4

[12] = tested on: M14; experiment: as above; type: cell-based, human; details: M14, Melanoma
Description: as §1, §2, §3, §4

[13] = tested on: MALME-3M; experiment: as above; type: cell-based, human; details: Melanoma
Description: as §1, §2, §3, §4

[14] = tested on: MCP7; experiment: as above; type: cell-based, human; details: MCP7, Breast
Description: as §1, §2, §3, §4

[15] = tested on: MDA-MB-435; experiment: as above; type: cell-based, human; details: MDA-MB-435, Melanoma
Description: as §1, §2, §3, §4

[16] = tested on: MGC803; experiment: as above; type: cell-based, human; details: MGC803, Gastric cancer
Description: as §1, §2, §3, §4

[17] = tested on: NCI-H460; experiment: as above; type: cell-based, human; details: NCI-H460, Non-Small Cell Lung
Description: as §1, §2, §3, §4

[18] = tested on: NCI-H522; experiment: as above; type: cell-based, human; details: NCI-H522, Non-Small Cell Lung
Description: as §1, §2, §3, §4

[19] = tested on: NCI/ADR-RES; experiment: as above; type: cell-based, human; details: Ovarian
Description: as §1, §2, §3, §4

[20] = tested on: OVCAR-3; experiment: as above; type: cell-based, human; details: OVCAR-3, Ovarian
Description: as §1, §2, §3, §4

[21] = tested on: OVCAR-4; experiment: as above; type: cell-based, human; details: OVCAR-4, Ovarian
Description: as §1, §2, §3, §4

[22] = tested on: OVCAR-8; experiment: as above; type: cell-based, human; details: OVCAR-8, Ovarian
Description: as §1, §2, §3, §4

[23] = tested on: PC-3; experiment: as above; type: cell-based, human; details: PC-3, Prostate
Description: as §1, §2, §3, §4

[24] = tested on: SF-268; experiment: as above; type: cell-based, human; details: SF-268, CNS
Description: as §1, §2, §3, §4

[25] = tested on: SF-295; experiment: as above; type: cell-based, human; details: SF-295, CNS
Description: as §1, §2, §3, §4

[26] = tested on: SF-539; experiment: as above; type: cell-based, human; details: SF-539, CNS
Description: as §1, §2, §3, §4

[27] = tested on: SGC7901; experiment: as above; type: cell-based, human; details: SGC7901, Gastric cancer
Description: as §1, §2, §3, §4

[28] = tested on: SK-MEL-2; experiment: as above; type: cell-based, human; details: SK-MEL-2, Melanoma
Description: as §1, §2, §3, §4

[29] = tested on: SN12C; experiment: as above; type: cell-based, human; details: Renal
Description: as §1, §2, §3, §4

[30] = tested on: SNB-19; experiment: as above; type: cell-based, human; details: SNB-19, CNS
Description: as §1, §2, §3, §4

[31] = tested on: SNU-449; experiment: as above; type: cell-based, human; details: SNU-449, Hepatocellular carcinoma
Description: as §1, §2, §3, §4

[32] = tested on: SW-620; experiment: as above; type: cell-based, human; details: SW-620, Colon
Description: as §1, §2, §3, §4

[33] = tested on: primary mouse hepatocytes (PMH); experiment: Growth of primary mouse hepatocytes, one-hour treatment; type: cell-based; details: as high as 320 µM
[34] = cited from earlier work
[35] = rodents, intraperitoneal injection

CC(C)[C@]12O[C@H]1[C@@H]1O[C@@]13[C@@]1(C)CCC4=C(COC4=O)[C@@H]1C[C@@H]1O[C@@]13C2=O [Triptonide]
IC50 [1]: 4.34 µM
IC50 [2]: 4.07 µM
IC50 [3]: 10.4 µM
IC50 [4]: 6.15 µM
IC50 [5]: 2.38 µM
IC50 [6]: 2.38 µM
IC50 [7]: 2.77 µM
IC50 [8]: 2.57 µM
IC50 [9]: 1.18 µM
IC50 [10]: 1.28 µM
IC50 [11]: 4.66 µM
IC50 [12]: 4.93 µM
IC50 [13]: 3.44 µM
IC50 [14]: 0.592 µM
IC50 [15]: 1.91 µM
IC50 [16]: 2.58 µM
IC50 [17]: 8.44 µM
IC50 [18]: 23.1 µM
IC50 [19]: 8.34 µM
IC50 [20]: 4.9 µM
IC50 [21]: 1.54 µM
IC50 [22]: 7.29 µM
IC50 [23]: 6.71 µM
IC50 [24]: 11.8 µM
IC50 [25]: 14.6 µM
IC50 [26]: 1.14 µM
IC50 [27]: 12 µM
IC50 [28]: 0.608 µM
IC50 [29]: 1.07 µM
IC50 [30]: 51 µM
IC50 [31]: 4.92 µM
IC50 [32]: 11.6 µM
growth inhibitory effect on PMHs [33]: no significant growth inhibitory effect
change of plasma concentration on redistribution ([34]; rodent, following an oral dosing): several dozen folds of decrease
T1/2 alpha [34, 35]: 0.17 to 0.195 h
T1/2 beta [34, 35]: 4.95 to 6.49 h
